The values below come from BindingDB's records for doi:10.1111/cbdd.12016 (Peking University Health Science Center, 2012).

Molecules are shown by their SMILES. pIC50: −log10 of the molar value.

The target of this assay is Beta-secretase 1 (Homo sapiens, UniProt P56817). Kind of assay: Fluorescence Resonance Energy Transfer (FRET) Assay. How it is done:
BACE1 inhibitory evaluation was carried out using a Fluorescence Resonance Energy Transfer (FRET) assay kit supplied by PanVera (kit P2985, Madison, WI, USA).

Chain of Beta-secretase 1 (P56817 whole entry): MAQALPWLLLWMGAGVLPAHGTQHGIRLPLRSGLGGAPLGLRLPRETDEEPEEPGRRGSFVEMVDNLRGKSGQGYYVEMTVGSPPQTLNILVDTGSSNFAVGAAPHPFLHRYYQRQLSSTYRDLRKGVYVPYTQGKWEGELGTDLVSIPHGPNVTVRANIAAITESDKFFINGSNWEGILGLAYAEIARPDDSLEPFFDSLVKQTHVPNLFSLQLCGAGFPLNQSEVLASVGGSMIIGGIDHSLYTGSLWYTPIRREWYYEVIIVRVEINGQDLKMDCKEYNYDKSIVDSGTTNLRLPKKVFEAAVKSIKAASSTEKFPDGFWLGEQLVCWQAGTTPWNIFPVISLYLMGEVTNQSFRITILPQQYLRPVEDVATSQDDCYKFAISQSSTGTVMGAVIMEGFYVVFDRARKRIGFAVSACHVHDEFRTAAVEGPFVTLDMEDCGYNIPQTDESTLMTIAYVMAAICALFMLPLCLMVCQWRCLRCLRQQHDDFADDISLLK

In the case of `CCCOc1cccc(-c2cc(Oc3ccccc3)cc(C(=N)N)c2)c1` [Benzimidamide, 6a], the pIC50 is 5.10.
With `CCCCOc1cccc(-c2cc(Oc3ccccc3)cc(C(=N)N)c2)c1` [Benzimidamide, 6b] the figure was 5.15; with `CCCOc1cccc(-c2cc(Oc3ccccc3F)cc(C(=N)N)c2)c1` [Benzimidamide, 6c], 5.36.
With `CCCCOc1cccc(-c2cc(C#N)cc(Oc3ccccc3F)c2)c1` [Benzonitrile, 5d] the figure was 5.03; with `CCCOc1cccc(-c2cc(C#N)cc(Oc3ccccc3F)c2)c1` [Benzonitrile, 5c], 4.10.
With `CCCCOc1cccc(-c2cc(Oc3ccccc3F)cc(C(=N)N)c2)c1` [Benzimidamide, 6d] the figure was 5.47.
